The source of these data is article PMC8805583, “Discovery of Herbacetin as a Novel SGK1 Inhibitor to Alleviate Myocardial Hypertrophy” (Advanced Science, 2021).

Common to all, as to assay: KinaseProfiler Assay, AGC kinase panel
Holding throughout (assay type): biochemical

The target in test [1] is T1, Rho-associated protein kinas-1 (ROCK-I) (Homo sapiens, UniProt Q13464).
T1 construct: purchased Eurofins Discovery (KinaseProfiler Service)
As to conditions: HBT 10 µmol. The text has this: (§1) 20 structurally related flavonoids of HBT were collected, which differ in the number and position of —OH groups, and examined for their effects on SGK1 activity. Based on the docking prediction, the —OH group at the C‐4’ position of HBT was required for the interaction with the key SGK1 residue D177. Therefore, the 20 flavonoids were divided into two classes according to the presence or absence of an —OH group at C‐4’ (Figure 4B). At both tested concentrations, flavonoids with an —OH group at C‐4’ (class A) inhibited SGK1 more than those without an —OH group at C‐4’ (class B) (Figure 4C). The IC50 of each compound is listed in Figure 4D; and Figure S6 (Supporting Information). […] Conversely, the absence of an ‐OH group at C‐8 led to a greater than 10‐fold reduction in flavonoid SGK1 inhibitory activity, as shown by the performance of A1 or A4. […] The inhibitory activity of HBT (10 µmol) against 28 human AGC kinases was tested by KinaseProfiler Assay (Eurofins Discovery). The percentage of HBT's inhibitory activity against each kinase was normalized by the respective positive inhibitors of AGC kinases.
(§2) The initial crystal structures of SGK1 (PDB entry: 3HDN, 3HDM, and 2R5T) were obtained from the Protein Data Bank (PDB). The prepared inhibitors were then docked by Glide with the extra precision (XP) scoring mode to estimate the binding affinity for each protein–ligand complex. The detailed process of docking has been described previously.^[ [46] ^] HEK293T cells were transfected with SGK1 mutant plasmids. After 24 h, cells were lysed and immunoprecipitated with anti‐FLAG antibody and beads. Immune complexes were washed with kinase buffer and incubated in kinase buffer with substrate peptide for 1 h at 30 ℃ followed by LC/MS measurement as described above. KINOMEscan Profiling Service and KinaseProfiler Service Assay were provided by Eurofins Discovery.

Test [2] addresses T2, cGMP-dependent type II protein kinase (PRKG2) (Homo sapiens, UniProt Q13237).
T2 construct: purchased Eurofins Discovery (KinaseProfiler Service)
T2 sequence (Q13237 1-762): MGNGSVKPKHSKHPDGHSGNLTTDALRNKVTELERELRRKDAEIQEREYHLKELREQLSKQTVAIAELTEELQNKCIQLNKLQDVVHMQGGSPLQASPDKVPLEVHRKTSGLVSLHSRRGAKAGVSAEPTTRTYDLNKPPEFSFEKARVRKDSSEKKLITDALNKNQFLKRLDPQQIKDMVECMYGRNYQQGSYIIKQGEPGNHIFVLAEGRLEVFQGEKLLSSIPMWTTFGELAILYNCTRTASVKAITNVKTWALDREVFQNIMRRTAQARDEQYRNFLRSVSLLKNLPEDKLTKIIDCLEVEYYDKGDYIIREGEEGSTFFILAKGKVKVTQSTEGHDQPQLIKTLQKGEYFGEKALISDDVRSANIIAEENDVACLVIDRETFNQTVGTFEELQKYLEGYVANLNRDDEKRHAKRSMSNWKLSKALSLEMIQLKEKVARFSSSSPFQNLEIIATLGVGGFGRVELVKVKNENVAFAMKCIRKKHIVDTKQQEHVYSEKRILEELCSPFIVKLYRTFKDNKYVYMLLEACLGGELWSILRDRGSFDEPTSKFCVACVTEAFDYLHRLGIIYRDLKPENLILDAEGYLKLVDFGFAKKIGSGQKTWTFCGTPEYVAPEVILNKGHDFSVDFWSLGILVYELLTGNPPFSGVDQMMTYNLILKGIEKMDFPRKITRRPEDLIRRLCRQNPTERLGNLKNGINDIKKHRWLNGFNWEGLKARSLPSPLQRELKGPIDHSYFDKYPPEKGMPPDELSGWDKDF
As to conditions: HBT 10 µmol; normalized by positive inhibitors.
From the text: as §1, §2

Test [3] has as its target T3, catalytic subunit C-beta of PKA (PKAcβ) (Homo sapiens, UniProt P22694).
T3 construct: purchased Eurofins Discovery (KinaseProfiler Service)
The following applies: HBT 10 µmol.
From the text: as §1, §2

T1 sequence (Q13464 whole entry): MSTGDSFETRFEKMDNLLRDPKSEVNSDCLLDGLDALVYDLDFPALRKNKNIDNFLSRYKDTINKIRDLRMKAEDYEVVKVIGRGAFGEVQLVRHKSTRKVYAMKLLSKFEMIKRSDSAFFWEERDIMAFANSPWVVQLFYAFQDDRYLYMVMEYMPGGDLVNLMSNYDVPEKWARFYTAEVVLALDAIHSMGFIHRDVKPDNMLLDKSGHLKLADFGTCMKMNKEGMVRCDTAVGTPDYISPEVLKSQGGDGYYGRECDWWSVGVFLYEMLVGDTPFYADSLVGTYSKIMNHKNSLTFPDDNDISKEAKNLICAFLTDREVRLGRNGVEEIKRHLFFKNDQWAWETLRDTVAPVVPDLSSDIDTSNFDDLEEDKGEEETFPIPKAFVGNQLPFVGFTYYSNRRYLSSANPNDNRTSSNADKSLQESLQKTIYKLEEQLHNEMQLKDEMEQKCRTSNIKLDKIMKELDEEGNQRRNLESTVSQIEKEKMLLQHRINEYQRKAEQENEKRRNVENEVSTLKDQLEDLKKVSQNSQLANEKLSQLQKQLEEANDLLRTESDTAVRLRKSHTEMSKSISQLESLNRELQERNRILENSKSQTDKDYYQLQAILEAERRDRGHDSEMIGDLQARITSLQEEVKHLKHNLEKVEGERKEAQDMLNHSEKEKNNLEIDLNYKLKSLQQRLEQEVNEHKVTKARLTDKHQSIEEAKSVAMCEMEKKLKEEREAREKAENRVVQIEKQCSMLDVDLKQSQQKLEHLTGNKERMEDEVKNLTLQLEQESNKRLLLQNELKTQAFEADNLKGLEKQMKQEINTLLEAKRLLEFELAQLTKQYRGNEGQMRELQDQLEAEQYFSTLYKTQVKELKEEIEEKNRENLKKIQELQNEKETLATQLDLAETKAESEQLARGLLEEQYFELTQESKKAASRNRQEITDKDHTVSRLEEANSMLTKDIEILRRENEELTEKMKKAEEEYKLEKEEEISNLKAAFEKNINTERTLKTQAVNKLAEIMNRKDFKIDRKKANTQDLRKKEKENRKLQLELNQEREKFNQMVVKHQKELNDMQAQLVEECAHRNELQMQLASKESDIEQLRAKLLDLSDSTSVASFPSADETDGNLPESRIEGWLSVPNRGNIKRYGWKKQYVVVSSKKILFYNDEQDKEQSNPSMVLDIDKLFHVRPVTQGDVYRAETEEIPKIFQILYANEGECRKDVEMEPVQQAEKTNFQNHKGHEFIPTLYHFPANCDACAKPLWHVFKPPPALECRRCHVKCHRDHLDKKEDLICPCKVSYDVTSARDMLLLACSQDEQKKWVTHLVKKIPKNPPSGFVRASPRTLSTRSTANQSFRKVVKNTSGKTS

Turning to `O=c1c(O)c(-c2ccc(O)cc2)oc2c(O)c(O)cc(O)c12` [HBT, herbacetin], the “inhibitory effect on ROCK-I” value in test [1] was “high inhibitory effects”. The “inhibitory activity on PRKG2” value in test [2] was 45%. The “inhibitory effect on PKAcβ” value in test [3] was “high inhibitory effects”.
